The supplement of paper PMC10883282
± gives the standard deviation of the averaged measurements.

Experiments:
Assay in all cases: relative viability vs DMSO control (72 h) (fraction); higher = more viable cells
A204 = tested on: A204
Procedure, shortened: (§1)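 ATPLite readings, expressed as percent growth and averaged over up to triplicate wells, provided relative viability. Before reading, sarcoma cell lines seeded in 384-well plates to reach 80–90% confluence received 2.5 µl of serially diluted compound after 24 h, from source plates of 10 mM to 0.0002 mM. Plates were held 72 h at 37 °C, 5% CO2, with 0.1% DMSO as vehicle and a 5 µM positive control. The data were rescaled to 1 for full and 0 for none.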

G401 = tested on: G401
Procedure, shortened: as §1

HS729 = tested on: HS729
Procedure, shortened: as §1

HT1080 = tested on: HT1080
Procedure, shortened: as §1

KHOS-NP = tested on: KHOS-NP
Procedure, shortened: as §1

RD-ES = tested on: RD-ES
Procedure, shortened: as §1

SK-ES-1 = tested on: SK-ES-1
Procedure, shortened: as §1

SK-LMS-1 = tested on: SK-LMS-1
Procedure, shortened: as §1

SW684 = tested on: SW684
Procedure, shortened: as §1

SW872 = tested on: SW872
Procedure, shortened: as §1

SW982 = tested on: SW982
Procedure, shortened: as §1

VA-ES-BJ = tested on: VA-ES-BJ
Procedure, shortened: as §1

C#Cc1cccc(Nc2ncnc3cc(OCCOC)c(OCCOC)cc23)c1 [Erlotinib]
Conditions	relative viability
A204, 0.00017 µM	1.06 ± 0.077
A204, 0.00051 µM	1.13 ± 0.042
A204, 0.00152 µM	1.09 ± 0.047
A204, 0.00457 µM	1.09 ± 0.094
A204, 0.01372 µM	1.07 ± 0.047
A204, 0.04115 µM	1.1 ± 0.042
A204, 0.1235 µM	1.09 ± 0.048
A204, 0.3704 µM	1.09 ± 0.071
A204, 1.111 µM	1.01 ± 0.011
A204, 3.333 µM	0.822 ± 0.069
A204, 10 µM	0.546 ± 0.035
G401, 0.00017 µM	1.04 ± 0.02
G401, 0.00051 µM	1.05 ± 0.033
G401, 0.00152 µM	1.02 ± 0.034
G401, 0.00457 µM	1.04 ± 0.013
G401, 0.01372 µM	1.01 ± 0.025
G401, 0.04115 µM	1.03 ± 0.014
G401, 0.1235 µM	1.018 ± 0.0056
G401, 0.3704 µM	1.05 ± 0.013
G401, 1.111 µM	1.016 ± 0.01
G401, 3.333 µM	0.9684 ± 0.0049
G401, 10 µM	0.787 ± 0.042
HS729, 0.00017 µM	1.03 ± 0.077
HS729, 0.00051 µM	0.978 ± 0.094
HS729, 0.00152 µM	0.976 ± 0.1
HS729, 0.00457 µM	0.961 ± 0.1
HS729, 0.01372 µM	1.01 ± 0.052
HS729, 0.04115 µM	1 ± 0.04
HS729, 0.1235 µM	0.995 ± 0.068
HS729, 0.3704 µM	1.01 ± 0.037
HS729, 1.111 µM	0.92 ± 0.028
HS729, 3.333 µM	0.781 ± 0.023
HS729, 10 µM	0.714 ± 0.023
HT1080, 0.00017 µM	1.09 ± 0.011
HT1080, 0.00051 µM	1.1 ± 0.048
HT1080, 0.00152 µM	1.09 ± 0.048
HT1080, 0.00457 µM	1.08 ± 0.036
HT1080, 0.01372 µM	1.09 ± 0.066
HT1080, 0.04115 µM	1.12 ± 0.063
HT1080, 0.1235 µM	1.11 ± 0.038
HT1080, 0.3704 µM	1.097 ± 0.0094
HT1080, 1.111 µM	1.1 ± 0.045
HT1080, 3.333 µM	1.16 ± 0.021
HT1080, 10 µM	0.942 ± 0.034
KHOS-NP, 0.00017 µM	1.11 ± 0.046
KHOS-NP, 0.00051 µM	1.092 ± 0.0055
KHOS-NP, 0.00152 µM	1.11 ± 0.031
KHOS-NP, 0.00457 µM	1.11 ± 0.037
KHOS-NP, 0.01372 µM	1.11 ± 0.035
KHOS-NP, 0.04115 µM	1.1 ± 0.019
KHOS-NP, 0.1235 µM	1.095 ± 0.0091
KHOS-NP, 0.3704 µM	1.1 ± 0.012
KHOS-NP, 1.111 µM	1.1 ± 0.038
KHOS-NP, 3.333 µM	1.086 ± 0.0049
KHOS-NP, 10 µM	1.04 ± 0.027
RD-ES, 0.00017 µM	0.971 ± 0.046
RD-ES, 0.00051 µM	0.974 ± 0.018
RD-ES, 0.00152 µM	0.975 ± 0.047
RD-ES, 0.00457 µM	0.992 ± 0.041
RD-ES, 0.01372 µM	0.965 ± 0.077
RD-ES, 0.04115 µM	0.967 ± 0.05
RD-ES, 0.1235 µM	0.998 ± 0.018
RD-ES, 0.3704 µM	0.994 ± 0.046
RD-ES, 1.111 µM	0.987 ± 0.042
RD-ES, 3.333 µM	0.936 ± 0.068
RD-ES, 10 µM	0.691 ± 0.071
SK-ES-1, 0.00017 µM	1.048 ± 0.0034
SK-ES-1, 0.00051 µM	1.04 ± 0.071
SK-ES-1, 0.00152 µM	1.08 ± 0.021
SK-ES-1, 0.00457 µM	1.07 ± 0.037
SK-ES-1, 0.01372 µM	1.09 ± 0.012
SK-ES-1, 0.04115 µM	1.07 ± 0.037
SK-ES-1, 0.1235 µM	1.05 ± 0.04
SK-ES-1, 0.3704 µM	1.03 ± 0.036
SK-ES-1, 1.111 µM	0.85 ± 0.034
SK-ES-1, 3.333 µM	0.567 ± 0.032
SK-ES-1, 10 µM	0.324 ± 0.021
SK-LMS-1, 0.00017 µM	1.06 ± 0.023
SK-LMS-1, 0.00051 µM	1.06 ± 0.048
SK-LMS-1, 0.00152 µM	1.09 ± 0.042
SK-LMS-1, 0.00457 µM	1.07 ± 0.014
SK-LMS-1, 0.01372 µM	1.09 ± 0.017
SK-LMS-1, 0.04115 µM	1.12 ± 0.078
SK-LMS-1, 0.1235 µM	1.07 ± 0.037
SK-LMS-1, 0.3704 µM	1.11 ± 0.042
SK-LMS-1, 1.111 µM	1.07 ± 0.025
SK-LMS-1, 3.333 µM	0.941 ± 0.028
SK-LMS-1, 10 µM	0.698 ± 0.029
SW684, 0.00017 µM	1.16 ± 0.051
SW684, 0.00051 µM	1.15 ± 0.072
SW684, 0.00152 µM	1.14 ± 0.041
SW684, 0.00457 µM	1.23 ± 0.065
SW684, 0.01372 µM	1.23 ± 0.015
SW684, 0.04115 µM	1.19 ± 0.018
SW684, 0.1235 µM	1.17 ± 0.026
SW684, 0.3704 µM	1.19 ± 0.019
SW684, 1.111 µM	1.2 ± 0.048
SW684, 3.333 µM	1.18 ± 0.067
SW684, 10 µM	1.05 ± 0.042
SW872, 0.00017 µM	1.11 ± 0.052
SW872, 0.00051 µM	1.12 ± 0.091
SW872, 0.00152 µM	1.14 ± 0.08
SW872, 0.00457 µM	1.11 ± 0.015
SW872, 0.01372 µM	1.07 ± 0.1
SW872, 0.04115 µM	1.1 ± 0.06
SW872, 0.1235 µM	1.11 ± 0.049
SW872, 0.3704 µM	1.06 ± 0.077
SW872, 1.111 µM	1.04 ± 0.025
SW872, 3.333 µM	0.822 ± 0.026
SW872, 10 µM	0.638 ± 0.015
SW982, 0.00017 µM	1.06 ± 0.025
SW982, 0.00051 µM	1.06 ± 0.034
SW982, 0.00152 µM	1.08 ± 0.046
SW982, 0.00457 µM	1.08 ± 0.046
SW982, 0.01372 µM	1.06 ± 0.025
SW982, 0.04115 µM	1.08 ± 0.05
SW982, 0.1235 µM	1.07 ± 0.06
SW982, 0.3704 µM	1.07 ± 0.042
SW982, 1.111 µM	0.9728 ± 0.0081
SW982, 3.333 µM	0.689 ± 0.079
SW982, 10 µM	0.466 ± 0.019
VA-ES-BJ, 0.00017 µM	1.088 ± 0.0097
VA-ES-BJ, 0.00051 µM	1.08 ± 0.047
VA-ES-BJ, 0.00152 µM	1.08 ± 0.027
VA-ES-BJ, 0.00457 µM	1.08 ± 0.017
VA-ES-BJ, 0.01372 µM	1.06 ± 0.019
VA-ES-BJ, 0.04115 µM	1.08 ± 0.036
VA-ES-BJ, 0.1235 µM	1.09 ± 0.013
VA-ES-BJ, 0.3704 µM	1.03 ± 0.024
VA-ES-BJ, 1.111 µM	1.01 ± 0.032
VA-ES-BJ, 3.333 µM	0.888 ± 0.029
VA-ES-BJ, 10 µM	0.642 ± 0.029
